Values joined by “and” are separate entries in the source; they are usually repeats but may differ in a detail not shown here. Identical values can stand only once. “Also recorded” adds a separate entry of the source. Like-named read-outs stand apart in the source and are kept apart here.
Experiments:
[1] = tested on: PC3 human prostate carcinoma; experiment: In vitro antitumor activity of terpenes against PC3 (seven day exposure); type: cell-based; details: for activity compared with farnesol (standard): FIGS. 7-9, relative to farnesol; for activity against the human prostate cancer cells: FIGS. 1-6, growth as % of untreated control; for IC50: Homo sapiens, 168 h, PC3, seven day exposure
Procedure: A human prostate carcinoma cell line, PC3, was obtained from the American Tissue Culture Collection, Accession No. CRL 1435. The PC3 cells were cultured in RPMI 1640 medium enriched with 10% fetal calf serum (FCS). The medium and the FCS are both available from GIBCO BRL Life Technologies, Inc., 8400 Helgeman Lane, Gaithersburg, Md. 20877.
Terpenes were exposed to the PC3 cells as follows. On day 0, seed PC3 cells at about 1,000 cells per well were placed in each well of a 96-well tissue culture plate along with […] (ml) of culture medium. On day 1, various concentrations of each of the selected terpenes were added. A serial dilution of each terpene was made in dimethyl sulfoxide (DMSO). All of the initial concentrations were about 200 times the desired concentration. Each dose was further diluted 100 times with culture medium. 0.1 ml of each dose was added per well to the tissue culture plate. The plates were incubated at 37° Celsius (C) under 5% carbon dioxide (CO2) for seven days. The results are depicted graphically in FIGS. 1-9 and some of the concentrations which inhibited cell growth to about 50% of the control growth (IC50) are shown in Table 1.

[2] = tested on: prostate tumor cells; experiment: Apoptosis and nuclear fragmentation (DNA ladder gel); type: cell-based; details: for DNA ladder indicative of apoptosis: 2% agarose minigel
Procedure: The invention examined the effect on prostate tumor cells of treatment with limonene, farnesol and phytol. […] The classic signature of apoptosis is the cleavage of nuclear DNA into nucleosomal subunits. On gels, this gives rise to the appearance of a ladder as nucleosomal units are sequentially cleaved from the DNA.
After drug exposure, cells were lysed and the high molecular DNA removed by centrifugation. The aqueous phase was treated with proteinase K to digest proteins. After a phenol/chloroform extraction, the DNA was precipitated with salt and ethanol. The pellet was dissolved in deionized water and treated with 500 μg/ml RNase A. The DNA was run on a 2% agarose minigel.

[3] = tested on: PC3 human prostate carcinoma; experiment: In vivo antitumor activity of d-limonene against PC3 in nude mice; set-up: species or system nude mice (human PC3 tumor); details: gavage once daily Monday through Friday for two weeks
Procedure: (§1) Nude mice were obtained from Cancer Research Facility in Frederick, Md. The strain name is Athymic MCR-nude. PC3 cells were transplanted into both the right and left flanks of nude mice and allowed to grow until the tumor size reached the volume of approximately 200-300 cubic mm (mm^3). At this time, five mice bearing ten tumors total were allocated to each group.
(§2) The drug or vehicle alone were administered by gavage once daily Monday through Friday for two weeks. The control group received olive oil at a dose of 0.1 cubic centimeters (cc) per ten grams (gm) of body weight. […] Both body weight and tumor volume were measured daily.

[4] = tested on: AD5 human osteosarcoma cell line; experiment: Effect of limonene on radiation sensitivity of tumor cells; type: cell-based; details: 3 mM limonene; FIG. 10
Procedure: An activated ras oncogene makes tumor cells resistant to radiation therapy. The AD5 human osteosarcoma cell line is an example of such a cell line resistant to radiation by virtue of an activated ras oncogene. AD5 cells were cultivated as described in Example 2. Limonene was prepared in various concentrations also as described in Example 2. […] This dose refers to the dose that reduces the number of surviving cells to about 37% of the control cells. Gy (gray) is an international metric unit for an absorbed dose of radiation. One Gy equals one Joule/kg.

[5] = tested on: tumor cell lines U87, A172, HOS, AD5, HT29; experiment: Cell viability of surviving cells in the proliferation test (exclusion method); type: cell-based, human; details: of the approximately 50% of cells which survived (at IC50)
Procedure: (§3) Limonene was added to the growth medium, which was supplemented with 10% FCS, and incubated at 37° C. for 24 hours. The medium was added to human tumor cells plated the previous day in 60 millimeter (mm) tissue culture (TC) dishes. After three to four days of continuous treatment, the cells were detached by trypsinization and counted using a hemocytometer (Hy-Lite Counting Chamber from Fisher Scientific, 711 Forbes Ave., Pittsburgh, Pa. 15219-4785). Cell viability was determined by a trypin blue exclusion method as described in detail in the manufacturer's instructions.

[6] = tested on: AD5 osteosarcoma (high ras); experiment: Effect of limonene on tumor cell proliferation, AD5; type: cell-based; details: Homo sapiens, 96 h; DMEM; three to four days of continuous treatment
Procedure: (§4) Limonene (Sigma) was evaluated for its effect on proliferation of various tumor cell lines. The cell lines included U87 and A172 (both are glioblastomas), HOS (a low ras osteosarcoma), AD5 (a high ras osteosarcoma), and HT29 (a high ras colon carcinoma). An activated or high ras means that the ras oncogene has mutated to a form which can transform normal cells to malignant cells. The glioblastoma cells were grown in RPMI 1640 culture medium and the other three cell lines were grown in Dulbecco's Modified Eagle's Medium (DMEM, available from GIBCO).
as §3

[7] = tested on: HT29 colon carcinoma (high ras); experiment: Effect of limonene on tumor cell proliferation, HT29; type: cell-based; details: Homo sapiens, HT-29, 96 h; DMEM; three to four days of continuous treatment
Procedure: as §4, §3

[8] = Tolerability and body weight of nude mice treated with limonene; type: in vivo
Procedure: as §1, §2

[9] = tested on: A172 glioblastoma; experiment: Effect of limonene on tumor cell proliferation, A172; type: cell-based; details: Homo sapiens, A 172, 96 h; RPMI 1640; three to four days of continuous treatment
Procedure: as §4, §3

[10] = tested on: U87 glioblastoma; experiment: Effect of limonene on tumor cell proliferation, U87; type: cell-based; details: Homo sapiens, 96 h; RPMI 1640; three to four days of continuous treatment
Procedure: as §4, §3

[11] = tested on: HOS osteosarcoma (low ras); experiment: Effect of limonene on tumor cell proliferation, HOS; type: cell-based; details: Homo sapiens, 96 h; DMEM; three to four days of continuous treatment
Procedure: as §4, §3

[12] = to compounds having terminal hydroxy groups; cited from earlier work
[13] = set-up: species or system nude mice; details: mouse, in vivo
Procedure: as §1
(§5) The drug or vehicle alone were administered by gavage once daily Monday through Friday for two weeks. The control group received olive oil at a dose of 0.1 cubic centimeters (cc) per ten grams (gm) of body weight. Other groups received the same volume of olive oil with limonene added to give a daily dose of limonene of 0.1, 1.0 or 2.0 […]. Both body weight and tumor volume were measured daily.
(§6) The experimental procedure of Example 5 was followed except that phytol was used in place of limonene. […] The results are depicted in FIG. 13 which plots the percent change of tumor volume versus the number of days after inoculation of the nude mice with […] tumor cells.

[14] = tested on: PC3 human prostate carcinoma; experiment: In vivo antitumor activity of phytol against PC3 in nude mice; set-up: species or system nude mice (human PC3 tumor)
Procedure: as §1, §5, §6

SMILES: CC(C)c1ccc(C(=O)O)cc1 [4-isopropylbenzoic acid]
- activity compared with farnesol (standard) [1]: less active

SMILES: CC(C)=CCC/C(C)=C/CC/C(C)=C/C(=O)O [farnesylic acid]
- activity against the human prostate cancer cells [1]: favorable activity

SMILES: O=C(O)CCCCCCCCCCCCCCCO [16-hydroxyhexadecanoic acid]
- activity compared with farnesol (standard) [1]: less active

SMILES: C=C(C)C1CC=C(C=NO)CC1 (stereo not drawn) [perillartine]
- activity compared with farnesol (standard) [1]: less active

SMILES: C=CC(=C)CCC=C(C)C [beta-myrcene]
- IC50 [1]: 147 µM and 21 µg/mL

SMILES: CC(C)=CCC/C(C)=C/CC/C(C)=C/CO [farnesol, trans, trans-farnesol]
- activity against the human prostate cancer cells [1]: favorable activity
- IC50 [1]: 85.6 µM and 19 µg/mL
- mode of cell death [2]: apoptosis, not necrosis
- tumor cell death (not cytostasis) [2]: tumor cell death (not cytostasis) was observed
- DNA ladder indicative of apoptosis [2]: a classic DNA ladder indicative of apoptosis has been noted; also recorded: classic DNA ladders

SMILES: CC(C)c1ccc(C=O)cc1 [4-isopropylbenzaldehyde]
- activity compared with farnesol (standard) [1]: less active

SMILES: CC(C)=CCCC(C)CC(=O)O (stereo not drawn) [citronellic acid]
- activity compared with farnesol (standard) [1]: less active

SMILES: CC(C)=CCCC(C)=CC=O [citral]
- activity against the human prostate cancer cells [1]: favorable activity
- IC50 [1]: 17 µM and 3 µg/mL

SMILES: CC(C)=CCC[C@@H](C)CCO [d-citronellol]
- activity compared with farnesol (standard) [1]: less active

SMILES: C=C(C)[C@H]1CC=C(C)CC1 [limonene, d-Limonene]
- rate of tumor growth vs control group ([3]; 0.1 gm/kg): the same
- rate of tumor growth vs control group ([3]; 1.0 gm/kg): the same
- rate of tumor growth vs control group ([3]; 2.0 gm/kg): approximately half of that in the control group
- effect on radiation dose response curve [4]: alters both the shoulder and the dose (Do) of the radiation dose response curve
- cell viability [5]: > 95%
- IC50 [6]: 4800 ± 600 µM
- IC50 [7]: 4500 ± 500 µM
- IC50 [1]: 217 µM and 30 µg/mL
- tolerability ([8]; gavage, two weeks, up to 2.0 gm/kg): appeared to tolerate the drug well
- loss in weight ([8]; mouse, in vivo): not a statistically significant loss in weight
- mode of cell death [2]: apoptosis, not necrosis
- tumor cell death (not cytostasis) [2]: tumor cell death (not cytostasis) was observed
- DNA ladder indicative of apoptosis [2]: a classic DNA ladder indicative of apoptosis has been noted; also recorded: classic DNA ladders
- IC50 [9]: 1500 ± 500 µM
- IC50 [10]: 2100 ± 400 µM
- IC50 [11]: 3000 ± 300 µM
- metabolism in vivo [12]: rapidly metabolized

SMILES: CC(C)c1ccc(CO)cc1 [4-isopropylbenzylalcohol]
- activity compared with farnesol (standard) [1]: less active

SMILES: C=CC(C)CCCC(C)(C)O (stereo not drawn) [dihydromyrcenol]
- activity compared with farnesol (standard) [1]: less active

SMILES: C/C(=C\CO)CCC[C@H](C)CCC[C@H](C)CCCC(C)C [phytol]
- activity against the human prostate cancer cells [1]: favorable activity
- IC50 [1]: 34.3 µM and 10 µg/mL
- tolerability [13]: tolerated the phytol well
- mode of cell death [2]: apoptosis, not necrosis
- tumor cell death (not cytostasis) [2]: tumor cell death (not cytostasis) was observed
- DNA ladder indicative of apoptosis [2]: a classic DNA ladder indicative of apoptosis has been noted
- tumor production during the treatment period ([14]; during the treatment period): negligible tumor production
- tumor volume as compared to the control animals ([14]; phytol by procedure of Example 5): lower tumor volume

SMILES: CC(C)=CCCC(C)CC=O (stereo not drawn) [citronellal]
- activity compared with farnesol (standard) [1]: less active

SMILES: C=CC(C)(O)CCC=C(C)CCC=C(C)C (stereo not drawn) [nerolidol]
- activity against the human prostate cancer cells [1]: favorable activity
- IC50 [1]: 90.1 µM and 20 µg/mL

SMILES: CC(C)=CCC/C(C)=C\CO [nerol]
- activity compared with farnesol (standard) [1]: less active

SMILES: CC(C)=CCC/C(C)=C/CC/C(C)=C/CC/C(C)=C/CO [geranylgeraniol]
- activity against the human prostate cancer cells [1]: favorable activity
- IC50 [1]: 10.5 µM and 3 µg/mL
